A short description of data set [1]: Cumulative release study of CPF from NFC depots with solvents. The data set is classed as physicochemical. The procedure: Cumulative release study aiming to increase the release rate of CPF and receive close to 100% cumulative result for NFC-formulations within 7 days. Following detailed tasks were performed: • Two solvents, DMSO (Dimethyl sulfoxide) and NMP (N-methyl-2-pyrrolidone), in addition to H2O were used to enhance release of CPF • 6% anionic and 1.5% native NFC were studied • Study included formulation and short in vitro dissolution studies for NFC-API depots to follow cumulative release
Cumulative release study aiming to increase cumulative result for NFC-formulations was performed with CPF, as it had clearly lower cumulative release results in previous experiments compared to MLX. 6% anionic and 1.5% native NFC were studied. Two solvents, DMSO (dimethyl sulfoxide) and NMP (N-methyl-2-pyrrolidone), in addition to H2O were used to enhance the release of CPF. The study included formulation and short in vitro dissolution studies for NFC-API depots to follow cumulative release (FIG. 7). Depots contained 50% of solvent and 50% of NFC.
However, the increase was most apparent within the first hours and first day of study, which after the release reverted to the level of pure NFC formulations.

The conditions of data set [2]: water at 25° C.; cited from earlier work.

Each structure is given as a SMILES string. In brackets after ≈: the same amount, converted by molar mass.

Turning to `CC(C(=O)O)c1ccc2c(c1)[nH]c1ccc(Cl)cc12` (stereo not drawn) [Carprofen], the “effect on release of CPF” value in data set [1] (50% DMSO in NFC depot) and in data set [1] (50% NMP in NFC depot) was “increased the release” each time.

For `Cc1cnc(NC(=O)C2=C(O)c3ccccc3S(=O)(=O)N2C)s1` [Meloxicam], the solubility in water in data set [2] is 7.15 µg/mL (≈ 20.3 µM).

The record behind these values is patent US11744798B2, “Injectable pharmaceutical formulation” (UPM-Kymmene Corporation, priority 2019, dated 2023).
